From patent publication US6893664B1, “Particle delivery techniques” (Powderject Research Limited, priority 1996, dated 2005) come the findings set out here.

SMILES strings stand for the structures.

Holding throughout (type): physicochemical
Data set [1] can be described thus: Absolute density by helium pycnometry. The protocol:
(§1) Trehalose 45H3830 (Sigma) and mannitol K91698380-703 (Merck) were either sieved, or freeze dried, compacted, ground and then sieved. A range of the resulting preparations were then analyzed for particle size and density measurements.
(§2) Portions of each sugar excipient were sieved to obtain preparations having reduced particle sizes. Sieving was carried out using stainless steel sieves for two hours at 3 mm amplitude using three sieve sizes (75 μm, 53 μm and 38 μm) without additional processing.
(§3) Alternatively, portions of each sugar excipient were processed using the methods of the invention as follows. 40 g of each of the sugars was dissolved in water, flash frozen, and then freeze dried over night. Samples of each freeze dried preparation were retained, and the remainder compacted in a 13 mm compression die (15,000 lbs/inch^2 for 45 seconds) into discs. The mannitol discs were ground using mortar and pestle, and then sieved as described above at 3 mm amplitude, using three sieve sizes. The trehalose discs were first ground in a vibratory ball mill (Retsch mill), then ground by mortar and pestle and sieved as above.
(§4) Samples from each of the above-described excipient preparations were then analyzed for absolute and envelope density. Absolute density was determined using helium pycnometry, and envelope density was determined using a GeoPyc™ Model 1360 Envelope Density Analyzer (Micromeritics Instrument Corp.).

Data set [2] in a line: Envelope density by GeoPyc Model 1360 Envelope Density Analyzer. To be noted: for change of envelope density by compression, milling, sieving: relative to both the freeze-dried and the sieved preparations. As for the experimental part:
as §1, §2, §3, §4

A short description of data set [3]: Densification of excipients, comparison of compacted particles with like weights of non-densified starting materials. Conditions: compacted at 10,000 lbs/in^2 for 30 seconds, ground, sieved > about 50 μm. The protocol:
Finely ground powders of pharmaceutical grade mannitol and lactose were obtained and reprocessed using the method of the invention. Particularly, approximately 30 to 50 mg of mannitol or lactose were compacted under pressure using a Carver Laboratory Pellet Press (Model 3620, available from Carver, Inc., Wabash, Ind.). The pressure of compaction was 10,000 lbs/in^2 which was applied for approximately 30 seconds. The resulting compacted pellets were ground using mortar and pestle until visually broken up, and then sieved to select for particles having a size greater than about 50 μm using the methods described in Example 3.

Setting [4] is: pretreatment: Freeze Dried, Compressed, Milled, Sieved.

In the case of `OC[C@H]1O[C@H](O[C@H]2O[C@H](CO)[C@@H](O)[C@H](O)[C@H]2O)[C@H](O)[C@@H](O)[C@@H]1O` [Trehalose], the “Density Absolute” value in data set [1] (pretreatment: Freeze Dried), in data set [1] (setting [4]) and in data set [1] (pretreatment: Sieved) was 1.5 g/mL in each case. For the same molecule, the “Density Envelope” value in data set [2] (pretreatment: Freeze Dried) came to 0.3 g/mL; in data set [2] (setting [4]), 0.8 g/mL; in data set [2] (pretreatment: Sieved), 0.5 g/mL. For the same molecule, in data set [2], the “change of envelope density by compression, milling, sieving” value is on record as “significant increase in envelope density”.

As to `OC[C@@H](O)[C@@H](O)[C@H](O)[C@H](O)CO` [Mannitol], in data set [3], the “size of compacted particles versus like weights of non-densified starting materials” value is “a significant size reduction was observed”. Moreover, the “Density Absolute” value in data set [1] (pretreatment: Freeze Dried), in data set [1] (setting [4]) and in data set [1] (pretreatment: Sieved) was 1.5 g/mL each time. Further, the “Density Envelope” value is 0.3 g/mL in data set [2] (pretreatment: Freeze Dried), 0.8 g/mL in data set [2] (setting [4]) and 0.5 g/mL in data set [2] (pretreatment: Sieved). Moreover, in data set [2], the “change of envelope density by compression, milling, sieving” value is on record as “significant increase in envelope density”.

Turning to `OC[C@H]1O[C@@H](O[C@H]2[C@H](O)[C@@H](O)C(O)O[C@@H]2CO)[C@H](O)[C@@H](O)[C@H]1O` (stereo partly shown) [lactose], in data set [3], the “size of compacted particles versus like weights of non-densified starting materials” value is listed as “a significant size reduction was observed”.
